Like-named read-outs stand apart in the source and are kept apart here.
Experiments:
VPAC1 = biological target: T1, VPAC1 (Homo sapiens, UniProt P32241); conditions: Chu et al., 2010; cited from earlier work
T1 sequence (P32241 31-457): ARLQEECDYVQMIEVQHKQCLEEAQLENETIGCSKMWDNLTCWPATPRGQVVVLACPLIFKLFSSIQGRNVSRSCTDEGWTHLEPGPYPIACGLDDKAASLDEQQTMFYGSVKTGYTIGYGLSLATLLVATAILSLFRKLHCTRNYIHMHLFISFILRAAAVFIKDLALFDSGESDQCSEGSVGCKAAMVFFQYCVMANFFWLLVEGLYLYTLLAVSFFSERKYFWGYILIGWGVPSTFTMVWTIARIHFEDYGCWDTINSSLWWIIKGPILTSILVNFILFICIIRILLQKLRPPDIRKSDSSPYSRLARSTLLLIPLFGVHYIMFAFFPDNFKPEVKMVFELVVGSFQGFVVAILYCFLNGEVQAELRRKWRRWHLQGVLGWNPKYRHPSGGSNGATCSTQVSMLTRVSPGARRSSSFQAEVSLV

VIPR2 [1] = biological target: T2, VIPR2 (Homo sapiens, UniProt P41587); experiment: BRET-based VIPR2 activation assay (CAMYEL cAMP sensor, CHO cells, VIP background); format: cell-based
T2 sequence (P41587 24-438): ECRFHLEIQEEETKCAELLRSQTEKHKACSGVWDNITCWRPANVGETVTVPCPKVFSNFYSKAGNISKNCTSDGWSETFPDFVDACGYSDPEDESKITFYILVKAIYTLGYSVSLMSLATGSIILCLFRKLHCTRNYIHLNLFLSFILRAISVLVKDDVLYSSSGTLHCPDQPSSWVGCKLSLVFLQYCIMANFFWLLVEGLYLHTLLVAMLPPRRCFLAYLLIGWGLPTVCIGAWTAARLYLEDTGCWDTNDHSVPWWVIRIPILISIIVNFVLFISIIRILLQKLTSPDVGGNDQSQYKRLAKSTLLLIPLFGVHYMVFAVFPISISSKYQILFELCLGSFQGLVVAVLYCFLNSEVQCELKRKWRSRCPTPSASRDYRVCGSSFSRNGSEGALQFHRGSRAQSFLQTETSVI
Text: In such a system, a detector cell is used which expresses both the VIPR2 receptor and “CAMYEL,” a YFP-Epac-RLuc8 BRET sensor construct. This construct includes Epac1, a guanine nucleotide exchange factor activated by direct binding of cAMP, fused with an enhanced YFP and Renilla luciferase 8 (Rluc8) allowing BRET upon cAMP-induced conformational changes (Jiang et al., 2007, J Biol Chem. 282:10576-10584). In response to elevated cAMP levels, there is a conformational change in Epac and therefore a change in the proximity of the fused chromophores, Rluc8 and YFP, resulting in measurable energy transfer. Coexpression of this BRET construct with VIPR2, optionally tagged at the N-terminus with a signal peptide and FLAG epitope (SF-VIPR2), for example in HEK293 cells, allows for detection of a VIPR2-specific response to cAMP. BRET readout may be calculated by quantifying the ratio of the light emitted by the acceptor, YFP (λ=525 nm), over the emission from the donor, RLuc8 (λ=485 nm). The proximity of the donor and acceptor, and therefore the BRET ratio, decreases in the presence of cAMP. In non-limiting specific embodiments, a stable cell line may be generated for this assay using the Flp-In T-Rex system in HEK293 cells. This system allows site-specific single copy integration of the gene of interest and control of expression levels using the Tet-repressor site making receptor expression tetracycline-inducible. For example, a CAMYEL and VIPR2 expressing line may be induced with 0.01 μg/ml tetracycline, then, 24 hours later cells may be collected and distributed into 96-well plates. After treatment with candidate inhibitor compound, for example at 5, 1 and 0.5 μM concentrations, cells may be incubated with the light emitting luciferin, coelenterazine H, for 5 min and incubated for 5 min with VIP at increasing concentrations, for example ranging from […] to 10 μM. The fluorescence and luminescence may then be quantified, for example using a PHERAstar (BMG) plate reader. […] Alternatively, analogous experiments may be performed using human cells harvested from a patient having a VIPR2 copy number variation, for example (but not by way of limitation) pluripotent stem cells prepared from such a patient and then transfected with a CAMYEL construct.
Numerous cellular assays were developed that were able to detect VIP responses absent of interference from non-specific vasopressin receptors using this CHO based system. VIPR2 is a Gs coupled receptor. Activation of VIPR2 by VIP leads to both an elevation in cAMP signaling and the recruitment of β-arrestin. A variety of combinations can be transiently transfect into these CHO cells for the assessment of cellular responses to VIP. For the BRET readout CHO cell lines expressing an YFP-Epac-RLuc8 (CAMYEL) BRET sensor were used to detect changes in cAMP. This construct includes Epac1, a guanine nucleotide exchange factor activated by direct binding of cAMP, fused to an enhanced YFP and RLuc8 allowing a change in BRET upon cAMP-induced conformational changes. The key for medium to high throughput screening assays is the use of stable cell lines allowing the continuous assaying of multiple compounds with the ability to generate large numbers of cells for rapid use. In these lines VIPR2 was expressed as one of the stable cell lines assays. This was introduced into the CHO-Flp-IN to allow the generation of isogenic stable cell lines expressing high levels of VIPR2 under control of the CMV promoter. This has been introduced into this line together with the CAMYEL construct previously described. This allows for detection of VIPR2-specific responses to cAMP. EYFP fluorescence and RLuc8 luminescence is quantified in the presence of 5 μM light-emitting luciferin, coelenterazine H, using a PHERAstar (BMG) plate reader. BRET is calculated by quantifying the ratio of the light emitted by the acceptor, YFP (λ=525 nm), over the emission from the donor, RLuc8 (λ=485 nm).
3. […]

PAC1 = biological target: T3, PAC1 (Homo sapiens, UniProt P41586); conditions: Chu et al., 2010; cited from earlier work
T3 sequence (P41586 21-468): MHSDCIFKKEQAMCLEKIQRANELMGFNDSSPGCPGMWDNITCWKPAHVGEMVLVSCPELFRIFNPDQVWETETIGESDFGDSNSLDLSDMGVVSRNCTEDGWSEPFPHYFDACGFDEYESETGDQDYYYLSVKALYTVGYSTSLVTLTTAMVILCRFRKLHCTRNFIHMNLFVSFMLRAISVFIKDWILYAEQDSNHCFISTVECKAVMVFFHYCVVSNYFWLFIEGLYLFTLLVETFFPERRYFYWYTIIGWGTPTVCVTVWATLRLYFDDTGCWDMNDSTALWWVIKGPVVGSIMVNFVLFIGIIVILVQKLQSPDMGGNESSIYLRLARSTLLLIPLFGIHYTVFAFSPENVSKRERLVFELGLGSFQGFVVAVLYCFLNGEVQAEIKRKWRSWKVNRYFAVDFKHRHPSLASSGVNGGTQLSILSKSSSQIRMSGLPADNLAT

VIPR2 [2] = biological target: T2, VIPR2; experiment: % Activity: inhibition of VIP-induced cAMP elevation and β-arrestin recruitment (Table 2); format: cell-based; design: expressed in transfected cells; host or cells: HEK293 cells transfected with VIPR2 in pCDNA3.1 (as described)
How it was run: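 cAMP: HEK293 stably expressing hVIPR2, inhibitor plus VIP 30 min, cAMP by HTRF (665/620 nm ratio ×10,000). β-arrestin: HEK293 with β-arrestin2-β-gal-EA, transiently transfected with VIPR2-ProLink; inhibitor 2 h at 37° C, enzyme complementation read by luminescence.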

[3] = Table 3, read-out: IC50 (from BRET)

Structure (SMILES)	IC50 (VIPR2 [1]; [3]) [µM]	IC50 (VIPR2 [1]; Table 1, read-out: IC50) [µM]	further results
O=C(N[C@H]1c2ccccc2C[C@H]1O)[C@H](Cc1ccccc1)C[C@H](O)CNS(=O)(=O)c1ccc([N+](=O)[O-])cc1 [Compound 1]			agonist or antagonist activities for VPAC1 (VPAC1): no detectable agonist or antagonist activities; VIPR2 inhibition in BRET-based assay (in words) (VIPR2 [1]; FIG. 1C, FIG. 5): rightward shift; agonist or antagonist activities for PAC1 (PAC1): no detectable agonist or antagonist activities
O=C(N[C@H]1c2ccccc2C[C@H]1O)[C@H](Cc1ccccc1)C[C@H](O)CNS(=O)(=O)c1ccc(F)cc1 [Compound X105]	6.03		
O=C(N[C@H]1c2ccccc2C[C@H]1O)[C@H](Cc1ccccc1)C[C@H](O)CNS(=O)(=O)c1ccc(Cl)cc1 [Compound X106]	2.02	0.28	
CC(O)c1ccc(S(=O)(=O)NC[C@@H](O)C[C@@H](Cc2ccccc2)C(=O)N[C@H]2c3ccccc3C[C@H]2O)cc1 (stereo partly shown) [Compound X107]	40.6		
O=C(N[C@H]1c2ccccc2C[C@H]1O)[C@H](Cc1ccccc1)C[C@H](O)CNS(=O)(=O)c1ccc2c(c1)CCC2 [Compound X108]	10		
O=C(N[C@H]1c2ccccc2C[C@H]1O)[C@H](Cc1ccccc1)C[C@H](O)CNS(=O)(=O)c1ccc2c(c1)OCCO2 [Compound X109]	33.7	0.206	
O=C(N[C@H]1c2ccccc2C[C@H]1O)[C@H](Cc1ccccc1)C[C@H](O)CNS(=O)(=O)c1ccc2c(c1)OCO2 [Compound X110]	3.81	2.16	
CCc1ccc(S(=O)(=O)NC[C@@H](O)C[C@@H](Cc2ccccc2)C(=O)N[C@H]2c3ccccc3C[C@H]2O)cc1 [Compound X115]	45.8	1.13	
CO[C@@H]1Cc2ccccc2[C@@H]1NC(=O)[C@H](Cc1ccccc1)C[C@H](O)CNS(=O)(=O)c1ccc(C(C)=O)cc1 [Compound X124]			IC50 (VIPR2 [1]; Table 4, read-out: IC50): 76.2 µM
CO[C@@H]1Cc2ccccc2[C@@H]1NC(=O)[C@H](Cc1ccccc1)C[C@H](O)CNS(=O)(=O)c1ccc(Cl)cc1 [Compound X126]			IC50 (VIPR2 [1]; Table 4, read-out: IC50): 13.3 µM
CO[C@H]1Cc2ccccc2[C@@H]1NC(=O)[C@H](Cc1ccccc1)C[C@H](O)CNS(=O)(=O)c1ccc2c(c1)OCCO2 [Compound X135]			IC50 (VIPR2 [1]; Table 4, read-out: IC50): 28.2 µM
O=C(N[C@H]1c2ccccc2C[C@H]1O)[C@H](Cc1ccccc1)C[C@H](O)CNS(=O)(=O)c1ccc([N+](=O)[O-])cc1 [Ref C1, reference compound]		1.3	% Activity (VIPR2 [2]): 84.52%

Source: US20150239831A1, “INHIBITORS OF CENTRAL NERVOUS SYSTEM VASOACTIVE INHIBITORY PEPTIDE RECEPTOR 2” (The Trustees Of Columbia University In The City Of New York, priority 2012, published 2015)
